Like-named read-outs stand apart in the source and are kept apart here. Bridge positions count the residues as written; N and C are the ends. Peptide text beside a SMILES is read from it.
Biological target: T1, human GRP78 (Homo sapiens, UniProt P11021)
T1 construct: The full length human GRP78 protein recombinantly produced in Escherichia coli; 6xHis (inferred from capture on nickel-NTA chip); purchased Abcam (Cambridge, UK); host or cells: Escherichia coli
Test: biochemical
Format: binding

T1 sequence (P11021 19-654): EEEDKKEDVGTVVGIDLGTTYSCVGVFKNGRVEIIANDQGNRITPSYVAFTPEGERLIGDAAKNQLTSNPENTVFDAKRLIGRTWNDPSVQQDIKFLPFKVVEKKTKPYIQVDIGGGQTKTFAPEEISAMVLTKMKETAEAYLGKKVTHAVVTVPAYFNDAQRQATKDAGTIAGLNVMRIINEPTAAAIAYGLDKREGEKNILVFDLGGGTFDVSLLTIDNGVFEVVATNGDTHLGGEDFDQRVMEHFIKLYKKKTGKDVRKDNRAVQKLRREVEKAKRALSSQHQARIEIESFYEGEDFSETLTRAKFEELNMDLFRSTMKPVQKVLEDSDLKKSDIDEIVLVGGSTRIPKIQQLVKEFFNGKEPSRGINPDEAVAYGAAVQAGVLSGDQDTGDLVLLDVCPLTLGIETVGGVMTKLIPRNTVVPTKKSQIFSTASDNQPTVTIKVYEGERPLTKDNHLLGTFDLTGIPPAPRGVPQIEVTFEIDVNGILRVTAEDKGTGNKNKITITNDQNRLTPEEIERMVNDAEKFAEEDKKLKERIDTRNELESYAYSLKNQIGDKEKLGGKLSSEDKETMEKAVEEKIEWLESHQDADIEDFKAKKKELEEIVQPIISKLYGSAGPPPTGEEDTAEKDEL

## CC(C)C[C@@H]1NC(=O)[C@H](C)NC(=O)[C@H](C(C)C)NC(=O)[C@H]([C@@H](C)O)NC(=O)[C@@H](N)CSSC[C@@H](C(N)=O)NC(=O)[C@H](C(C)C)NC(=O)[C@H](CCCNC(=N)N)NC(=O)[C@H](C(C)C)NC(=O)[C@H](Cc2ccc(O)cc2)NC(=O)CNC(=O)CNC(=O)[C@@H]2CCCN2C1=O [Pep42, reference compound] (H-CTVALPGGYVRVC-NH2; disulfide 1-13)
Affinity of binding to GRP78
  Kd: 3.4 mM
read-out: Ka1 (association rate constant 1)
  kon: 160 M⁻¹ s⁻¹
read-out: Kd1 (dissociation rate constant 1)
  koff: 0.678 s⁻¹
read-out: Kd2 (dissociation rate constant 2)
  koff: 0.0116 s⁻¹
